Values quoted from earlier work as cited in patent US6503496B2, “Non-alcoholic and hypoallergenic face cream for the treatment of razor bumps” (priority 2000, dated 2003).

Experiments:
[1] = not given; remark: listed apart in the source

| solubility in alkaline solution ([1]; alkaline solution) | solubility in water ([1]; water) | Compound | toxicity on the skin |
| --- | --- | --- | --- |
| – | – | O=C([O-])CN(CCN(CC(=O)[O-])CC(=O)O)CC(=O)[O-].[Na+].[Na+].[Na+] [Trisodium EDTA] | No known toxicity |
| soluble | Practically insoluble | Aluminium Polyhydrate | – |
